≈ marks a conversion by molar mass, not a printed value.

Our source for the IC50 values is patent publication US7649012B2, “Compounds, pharmaceutical compositions containing same, and methods of use for same” (FASgen, Inc., priority 2002, dated 2010).

The assay has as its system OV. As to the kind of experiment: XTT cytotoxicity assay, cells marked (OV). It is filed as cell-based.
Compound `CCCCCCCCC1(C)SC(=O)C=C1OCC(=O)NNC(=O)c1ccco1` (stereo not shown) had an IC50 of 21.3 µg/mL (≈ 52.1 µM).

Take `CCCCCCCCC1(C)SC(=O)C=C1OCc1ccccc1` (stereo not shown): the IC50 was 27.8 µg/mL (≈ 83.6 µM).

As to `CCCCCCCCC1(C)SC(=O)C=C1OCC(=O)NNCc1ccc(Cl)cc1` (stereo not shown), the 50% inhibitory concentration (IC50) came out at 16 µg/mL (≈ 36.4 µM).

As for `CCCCCCCCC1(C)SC(=O)C=C1OCC(=O)NNC(C)=O` (stereo not shown), the IC50 amounted to 16 µg/mL (≈ 44.9 µM).
